This note sets out measurements from US20250262170A1, “COMBINATIONS OF BETA 2-ADRENERGIC RECEPTOR AGONISTS AND BETA 3-ADRENERGIC RECEPTOR AGONISTS, AND MEDICAL USES THEREOF” (ATROGI AB, priority 2022, published 2025).

A value given as a limit tells only on which side of the number the result lay.

T2 sequence (P13945 whole entry): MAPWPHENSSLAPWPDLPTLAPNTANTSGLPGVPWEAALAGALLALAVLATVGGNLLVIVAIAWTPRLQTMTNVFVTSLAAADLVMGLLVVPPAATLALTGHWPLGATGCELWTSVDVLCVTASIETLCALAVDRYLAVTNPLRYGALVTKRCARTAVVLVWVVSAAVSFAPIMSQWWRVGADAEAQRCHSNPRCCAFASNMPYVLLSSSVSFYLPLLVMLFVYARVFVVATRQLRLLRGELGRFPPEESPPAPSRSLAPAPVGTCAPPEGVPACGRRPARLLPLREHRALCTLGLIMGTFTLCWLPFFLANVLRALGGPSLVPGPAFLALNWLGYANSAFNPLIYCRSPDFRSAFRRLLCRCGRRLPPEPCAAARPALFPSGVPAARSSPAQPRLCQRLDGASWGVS

The target of the first assay is T1, β2-adrenergic receptor (Rattus norvegicus, UniProt P10608).
T1 construct: endogenous in cells; host or cells: L6 myotubes differentiated from L6 myoblasts
T1 sequence (P10608 whole entry): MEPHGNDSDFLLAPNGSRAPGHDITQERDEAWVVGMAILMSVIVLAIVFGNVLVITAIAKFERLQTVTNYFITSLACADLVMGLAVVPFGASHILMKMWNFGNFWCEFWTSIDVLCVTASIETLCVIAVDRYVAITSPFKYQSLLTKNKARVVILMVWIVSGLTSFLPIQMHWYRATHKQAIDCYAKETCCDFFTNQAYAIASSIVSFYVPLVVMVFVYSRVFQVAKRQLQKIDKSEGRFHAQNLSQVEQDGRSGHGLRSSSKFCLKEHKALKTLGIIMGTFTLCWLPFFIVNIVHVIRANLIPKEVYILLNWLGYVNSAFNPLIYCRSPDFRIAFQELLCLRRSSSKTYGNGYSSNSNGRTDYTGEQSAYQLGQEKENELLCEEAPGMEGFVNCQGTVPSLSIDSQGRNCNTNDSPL
Nature of the assay: Glucose uptake in L6-myotubes in the presence of the selective β2-adrenergic receptor antagonist ICI-118551. The settings on record: 3H-2-deoxyglucose, increasing ICI-118551. The format is cell-based. The procedure: L6-myoblasts were grown in Dulbecco's Modified Eagle's Medium (DMEM) containing 1 g/L glucose supplemented with 10% fetal bovine serum (FBS), 2 mM L-glutamine, 50 U/mL penicillin, […] streptomycin and 10 mM HEPES. Cells were plated at 1×10^5 cells per mL in 24-well plates. After reaching 90% confluence the cells were grown in medium containing 2% FBS for 7 days where upon cells differentiated into myotubes.
The differentiated L6-myotubes were serum-starved overnight in medium containing 0.5% fatty-acid free BSA and stimulated with Compounds A and B at a final concentration of 1×10^−5 M in the presence of the selective β2-adrenergic receptor antagonist ICI-118551. After 1 h 40 min the cells were washed with warm, glucose free medium twice and another portion of agonist was added to the glucose free medium. After another 20 min of incubation the cells were exposed to 50 nM ^3H-2-deoxyglucose for 10 min before washed in ice cold glucose free medium three times and lysed in 400 μl/well 0.2 M NaOH for 1 h at 60° C. The cell lysate was mixed with 4 ml scintillation buffer (Emulsifier Safe, Perkin Elmer) and the radioactivity was detected in a […] (Tri-Carb 4810TR, Perkin Elmer).
With `CC(C)(C)NCC(O)c1cc(Cl)c(N)c(Cl)c1` (stereo not shown) [clenbuterol, reference compound], the “glucose uptake promoted by the agonist in the presence of ICI-118551” value is listed as “inhibited in a dose-dependent manner”. On to `CC(C)(C)NC[C@H](O)c1cccc(F)c1` [Compound A], for which the “glucose uptake promoted by the agonist in the presence of ICI-118551” value is reported as “inhibited in a dose-dependent manner”.

Another assay concerns the target T2, human β3-adrenergic receptor (Homo sapiens, UniProt P13945).
T2 construct: expressed in transfected cells
Nature of the assay: cAMP levels in CHO-K1 cells expressing the human β3-adrenergic receptor. The format is cell-based. The settings on record: CHO-K1, 0.25 h, 15 min, read-out: Activity (intracellular cAMP compared to that of isoproterenol). The procedure: CHO-K1 cells stably expressing the human β3-adrenergic receptors were serum-starved overnight and stimulated with an agonist, final concentration 1×10^−5 M, for 15 min in stimulation buffer (HBSS supplemented with 1% BSA, 5 mM HEPES and 1 mM IBMX, pH 7.4) The medium was then aspirated and to end the reaction, 100 μL of 95% EtOH was added to each well of the 24-well plate and cells were kept at −20° C. overnight. The next day EtOH was allowed to evaporate and 250 μL of lysis buffer (1% BSA, 5 mM HEPES and 0.3% Tween-20, pH 7.4) was added to each well. The plate was kept at −80° C. for 30 min and thawed in room temperature. Intracellular cAMP levels were detected using an alpha screen cAMP kit (6760635D from Perkin Elmer). The activity for each compound is compared to that of isoproterenol.
A general note: Changes in cAMP serve as a functional read-out for many G protein-coupled receptors.
On to `CCCS(=O)(=O)N[C@H]1CC[C@H](CC(C)(C)NC[C@H](O)c2cncc(F)c2)CC1` [Compound 10, N-((trans)-4-(2-(((R)-2-(5-fluoropyridin-3-yl)-2-hydroxyethyl)amino)-2-methylpropyl)cyclohexyl)-propane-1-sulfonamide], for which the Emax at 10 µM was above 75%. Same read-out and setting: next, `CC1(C)CC[C@H]([C@H](O)c2cccc(Cl)c2)N1` [Compound 58, (R)-(3-chlorophenyl)((R)-5,5-dimethylpyrrolidin-2-yl)-methanol]: 50 to 75%; `CCOC(=O)CO[C@H]1CC[C@H](C(C)(C)NC[C@H](O)c2cccc(F)c2)CC1` [Compound 41, ethyl 2-(((1R,4r)-4-(2-(((R)-2-(3-fluorophenyl)-2-hydroxyethyl)amino)propan-2-yl)cyclohexyl)oxy)acetate]: above 75%; `CC(C)(C[C@H]1CC[C@H](NS(C)(=O)=O)CC1)NC[C@H](O)c1cncc(F)c1` [Compound 46, N-((trans)-4-(2-(((R)-2-(5-fluoropyridin-3-yl)-2-hydroxyethyl)amino)-2-methylpropyl)cyclohexyl) methanesulfonamide]: above 75%.

`CCCCNCC(O)c1ccc(F)c(N)c1F` (stereo not shown) [Compound 67, 1-(3-amino-2,4-difluoro-phenyl)-2-(butylamino)ethan-1-ol]: the Emax at 10 µM was 50 to 75%.
